Test results: patent US11234971B2, “Methods of treating cancer comprising administration of a glucocorticoid receptor modulator and a cancer chemotherapy agent” (Corcept Therapeutics Incorporated, priority 2018, dated 2022)

Columns and labels:
progesterone receptor = progesterone receptor (Homo sapiens, UniProt P06401); conditions: cited from earlier work
[1] = tested on: OVCAR-5 human ovarian cancer cells; experiment: OVCAR-5 cell growth (Cell Titer-Glo) with chemotherapy agents with or without dexamethasone and relacorilant; assay type: cell-based
Procedure: The initial cell density was chosen to be low enough to allow for several population doublings (typically 3 to 5) during the indicated incubation period. […] After 48 hours of incubation, serially diluted test agents in growth medium were added to each well. After 72 hours of culture, the plated cells and Cell Titer-Glo® (Promega G7571) reagents were brought to room temperature to equilibrate for 30 minutes. 200 μL of Cell Titer-Glo® reagent was then added to each well, the plate was shaken for two minutes, and then left to equilibrate for ten minutes. The Cell Titer-Glo® cell viability assay uses ATP levels to determine cell numbers. After this equilibration, luminescence was read on the Biotech Synergy II microplate reader. The percent control (% C) of cell growth for each test concentration was calculated relative to untreated wells. All tests were performed in quadruplicate. Individual assay plates were evaluated for appropriate signal and well-to-well variance in the control wells for quality control.

MIA PaCa-2 xenograft = MIA PaCa-2 xenograft tumor growth in immunodeficient mice; assay type: in vivo
Excerpt: The present example, Example 3, provides results of administration of the glucocorticoid receptor modulator relacorilant to cancerous cells. […] The MIA PaCa-2 xenograft model uses MIA PaCa-2 cell-line cells (pancreatic tumor cells derived from a pancreatic adenocarcinoma from a patient) engrafted into immunodeficient mice. The ovarian OVCAR-5 cell line is derived from a human epithelial carcinoma of the ovary, and was established from ascitic fluid obtained (prior to cytotoxic treatment) from a patient with progressive ovarian adenocarcinoma.
FIG. 10A. Relacorilant sensitizes the MIA PaCa-2 xenograft to paclitaxel. Tumor volume of PaCa-2 xenograft tumors implanted in immunodeficient mice is shown as a function of time (days) after implantation in the presence of vehicle (filled circles), paclitaxel (7.5 mg/kg; filled squares), relacorilant alone (upwardly pointing triangles), and relacorilant+7.5 mg/kg paclitaxel (downwardly pointing triangles). 7.5 mg/kg paclitaxel was administered three times (at the days indicated by the dashed vertical lines, indicating days 8, 12, and 16 following tumor implantation into the mice).
FIG. 10B. Relacorilant with Paclitaxel Reduces MIA PaCa-2 xenograft Tumor Volume. Initial tumor volume of PaCa-2 xenograft tumors implanted in immunodeficient mice was less than 400 cubic millimeters (mm^3). […] Tumor size progression is thus indicated by lines descending from the top (100%) value. The tumor-bearing mice were treated with vehicle, relacorilant (30 mg/kg every day), paclitaxel (three doses of 7.5 mg/kg paclitaxel, one dose administered on each of the days indicated in FIG. 10A), and the combination relacorilant (30 mg/kg every day) with paclitaxel (7.5 mg/kg doses of paclitaxel each administered on days 8, 12, and 16 post implantation). […] Xenograft tumor growth was slowed by combined relacorilant+paclitaxel as compared to either paclitaxel alone or relacorilant alone. Relacorilant thus enhanced sensitivity to paclitaxel in the pancreatic MIA PaCa-2 xenograft model.

GR-controlled genes = experiment: Whole blood mRNA expression (NanoString) in cancer patients of study NCT02762981, baseline vs C1D15; assay type: in vivo, human; conditions: for expression levels of COX2, DUSP1, GSK3b, MCL-1, PIK3CG and RGS-2 (mRNA): 40 cancer patients (FIG. 5B); for genes downregulated in whole blood, baseline to C1D15: 800-gene panel, relacorilant+nab-paclitaxel; for enrichment of genes shared in the sets induced by prednisone and suppressed by relacorilant / genes shared in the sets induced by prednisone and suppressed by relacorilant: top 200 genes each
Procedure: Blood was collected at baseline, prior to administration of relacorilant or nab-paclitaxel. Blood was also drawn in the morning, pre-dose, on cycle 1, day 15. Blood (in the amount of 2.5 milliLiters (mL)) was drawn into a PAXGene blood RNA tube (Qiagen) using a butterfly needle. The tube was sealed and gently inverted 10 times. The tube was frozen in dry ice and stored at −80° C. until RNA extraction.
Paired baseline and cycle 1, day 15 (C1D15) specimens were thawed and processed in the same batch. RNA was isolated using the PAXgene Blood RNA kit (Qiagen) using the protocol recommended by the manufacturer. RNA yield was quantified using a NanoDrop ND-2000 spectrophotometer (ThermoFisher Scientific). RNA was assessed using a custom 33-gene panel after mRNA sample preparation and hybridization using NanoString nCounter XT Assay, following the operation and maintenance instructions for the NanoString prep station and digital analyzer. Specific RNA transcripts were quantified using a Nanostring nCounter FLEX instrument (NanoString Technologies) and analyzed using nSolver 3.0. (Nanostring Technologies, Seattle Wash., USA).
Housekeeping gene pairwise correlations were determined using nSolver 3.0 (NanoString Technologies). Test genes were normalized to the housekeeping genes HPRT1, PPIB, TRAP1, EEF1A1, and TBP. Change from baseline was calculated using the RNA counts at baseline and cycle 1, day 15 as follows: Change from Baseline=(C1D15−baseline)/(baseline) Results Housekeeping Genes Selection
Calculations For FIG. 6, the normalized counts of 10 GR-controlled genes were averaged. Change from baseline of these averaged values was calculated per patient using the formula: Percent change from baseline=((average value at C1D15)−(average value at baseline))/(average value at baseline)*100Gene set enrichment statistics were calculated using the program available at the URL: Nemates.org/MA/progs/overlap_stats_prog.html
RNA isolation and quantification RNA was assessed using a custom 800-gene panel after mRNA sample preparation and hybridization using NanoString nCounter Assay, following the operation and maintenance instructions for the NanoString prep station and digital analyzer. The 800 gene panel was comprised of the Nanostring 10360™ panel plus the following 10 custom probes:
Data normalization and analysis Housekeeping gene pairwise correlations were determined using advanced analysis in nSolver 3.0 (NanoString Technologies). Test genes were normalized to the housekeeping genes selected by geNORM. […]

[2] = OVCAR-5, glucocorticoid 100 nM dexamethasone, relacorilant in the presence of the glucocorticoid
[3] = patients with progressive disease

progesterone receptor, sequence (P06401 whole entry, species assumed): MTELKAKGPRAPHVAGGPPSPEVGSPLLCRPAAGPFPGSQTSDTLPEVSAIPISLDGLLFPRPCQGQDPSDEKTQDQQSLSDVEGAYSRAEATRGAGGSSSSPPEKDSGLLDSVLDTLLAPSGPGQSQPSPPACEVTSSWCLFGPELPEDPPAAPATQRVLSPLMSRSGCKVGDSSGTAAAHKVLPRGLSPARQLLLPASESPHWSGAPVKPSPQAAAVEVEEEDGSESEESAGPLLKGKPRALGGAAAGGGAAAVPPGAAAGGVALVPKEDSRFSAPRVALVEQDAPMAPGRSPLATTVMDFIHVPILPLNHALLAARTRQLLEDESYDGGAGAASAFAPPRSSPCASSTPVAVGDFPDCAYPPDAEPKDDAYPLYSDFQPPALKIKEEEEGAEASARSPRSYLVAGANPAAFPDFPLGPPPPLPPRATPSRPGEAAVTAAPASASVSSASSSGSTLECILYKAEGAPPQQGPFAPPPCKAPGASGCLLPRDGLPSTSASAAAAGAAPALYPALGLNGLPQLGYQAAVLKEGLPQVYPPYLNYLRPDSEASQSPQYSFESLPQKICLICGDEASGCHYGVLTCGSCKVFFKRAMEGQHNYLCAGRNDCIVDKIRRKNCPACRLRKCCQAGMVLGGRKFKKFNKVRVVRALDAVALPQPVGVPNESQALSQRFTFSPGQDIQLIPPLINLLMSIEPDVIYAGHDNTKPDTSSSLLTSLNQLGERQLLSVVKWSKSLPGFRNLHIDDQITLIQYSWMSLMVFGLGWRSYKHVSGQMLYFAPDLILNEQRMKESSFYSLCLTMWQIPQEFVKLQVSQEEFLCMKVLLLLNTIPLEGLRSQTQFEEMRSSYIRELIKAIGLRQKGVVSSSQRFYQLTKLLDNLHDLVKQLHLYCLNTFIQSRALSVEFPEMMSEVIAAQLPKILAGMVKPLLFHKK

What does the source list for `Cn1cc(S(=O)(=O)N2CCC3=Cc4c(cnn4-c4ccc(F)cc4)C[C@]3(C(=O)c3cc(C(F)(F)F)ccn3)C2)cn1` [relacorilant, (R)-(1-(4-fluorophenyl)-6-((1-methyl-1H-pyrazol-4-yl)sulfonyl)-4,4a,5,6,7,8-hexahydro-1H-pyrazolo[3,4-g]isoquinolin-4a-yl)(4-(trifluoromethyl)pyridin-2-yl)methanone]?
Ki (progesterone receptor): > 10 µM; cell numbers (luminosity) in the presence of bortezumib and palbociclib ([1]; OVCAR-5, bortezumib 500 μM, palbociclib 100 μM, 100 nM dexamethasone, 300 nM relacorilant): opposed; maximal toxicity at high chemotherapy concentrations ([1]; OVCAR-5, dexamethasone, relacorilant + dexamethasone): reversed this; half-maximal potency of / sensitivity to oxaliplatin [1, 2]: restored sensitivity to oxaliplatin; maximum effect of / sensitivity to gemcitabine [1, 2]: restored sensitivity to gemcitabine; maximum effect of / sensitivity to paclitaxel [1, 2]: restored sensitivity to paclitaxel; effects of dexamethasone on response to chemotherapeutic agents ([1]; OVCAR-5, several chemotherapeutic agents): reversed the effects of dexamethasone in all cases; potency of carboplatin ([1]; OVCAR-5 grown with 100 nM dexamethasone, carboplatin titrated against increasing amounts of relacorilant): dose-dependently increased; time to progression (fraction of tumors whose volume remained below 400 mm^3) (MIA PaCa-2 xenograft; relacorilant (30 mg/kg every day) added to paclitaxel 7.5 mg/kg days 8, 12, 16, compared to paclitaxel alone, p<0.0001): delayed the time to progression; tumor growth (tumor volume over time) (MIA PaCa-2 xenograft; relacorilant added to 7.5 mg/kg paclitaxel (days 8, 12, 16), compared to paclitaxel alone, p<0.0001): delayed tumor growth; time to progression (fraction of tumors whose volume remained below 400 mm^3) (MIA PaCa-2 xenograft; single agent, relacorilant 30 mg/kg every day or paclitaxel 7.5 mg/kg on days 8, 12, 16): nearly superimposed on the vehicle line; expression levels of COX2, DUSP1, GSK3b, MCL-1, PIK3CG, RGS-2, SGK1 and STAT3 (mRNA) (GR-controlled genes; 21 cancer patients (FIG. 5A), patients who derived benefit from relacorilant+nab-paclitaxel): decreased as compared to baseline; expression levels of COX2, DUSP1, GSK3b, MCL-1, PIK3CG, RGS-2, SGK1 (mRNA) (GR-controlled genes; 21 cancer patients (FIG. 5A), patients whose cancer progressed): did not exhibit decreased levels; expression levels of COX2, DUSP1, GSK3b, MCL-1, PIK3CG and RGS-2 (mRNA) (GR-controlled genes; patients who derived benefit from relacorilant+nab-paclitaxel): decreased as compared to baseline; expression levels of COX2, DUSP1, GSK3b, MCL-1, PIK3CG and RGS-2 (mRNA) (GR-controlled genes; patients whose cancer progressed): did not exhibit decreased levels; genes downregulated in whole blood, baseline to C1D15 (GR-controlled genes; PD patients): 30 genes; genes downregulated in whole blood, baseline to C1D15 (GR-controlled genes; SD/PR/CR patients): 92 genes; normalized DUSP1 mRNA counts, baseline vs cycle 1 day 15 (GR-controlled genes; all patients, relacorilant + nab-paclitaxel, paired t-test p=0.065): not significantly different; normalized DUSP1 mRNA counts, baseline vs cycle 1 day 15 (GR-controlled genes; patients experiencing benefit (SD, PR, CR), relacorilant + nab-paclitaxel, paired t-test p=0.015): significant decrease; decrease in DUSP1 counts, baseline vs cycle 1 day 15 (GR-controlled genes; patients with progressive disease, relacorilant + nab-paclitaxel): not observed; enrichment of genes shared in the sets induced by prednisone and suppressed by relacorilant (GR-controlled genes; patients who benefited): 2.2 fold; genes shared in the sets induced by prednisone and suppressed by relacorilant (GR-controlled genes; patients who benefited, p=3×10^−30): 116 genes; enrichment of genes shared in the sets induced by prednisone and suppressed by relacorilant (GR-controlled genes; [3]): 0.7 fold; genes shared in the sets induced by prednisone and suppressed by relacorilant (GR-controlled genes; [3]): 38 genes
